The values below come from ChEMBL document CHEMBL1137794, “Didemnins and tunichlorin: novel natural products from the marine tunicate Trididemnum solidum” (J Nat Prod, 1988).

For series [1], the system named is Lymphocyte. The series is described as follows: Immunosuppressive activity in human lymphocytes by mixed lymphocyte reaction assay. It is filed as functional, cell-based.
Series [2] concerns T-cell. Nature of the series: Immunosuppressive activity in baboon T cell assessed as inhibition of mitogenesis. The following applies: Papio hamadryas.
The test system of series [3] is B cell. The series is described as follows: Immunosuppressive activity in human B cell assessed as inhibition of mitogenesis.
Series [4] deals with Lymphocyte. Nature of the series: Immunosuppressive activity in baboon lymphocytes by mixed lymphocyte reaction assay. The settings on record: Papio hamadryas.
Series [5] has as its system T-cell. Nature of the series: Immunosuppressive activity in human T cell assessed as inhibition of mitogenesis. It is filed as functional, cell-based.
Series [6] concerns Lymphocyte. The series is described as follows: Immunosuppressive activity in human lymphocytes assessed as inhibition of protein synthesis.
Series [7] has as its system T-cell. Nature of the series: Immunosuppressive activity in rat T cell assessed as inhibition of mitogenesis.
Series [8] concerns Mus musculus. Nature of the series: Toxicity in mouse B16 cells xenografted mouse assessed as change in body weight at 0.5 mg/kg, ip administered on day 1 to day 9. The format is organism-based. The arrangement: dose 0.5 mg/kg, route intraperitoneal. The settings on record: in vivo.
The test system of series [9] is Mus musculus. Nature of the series: Toxicity in mouse B16 cells xenografted mouse assessed as change in body weight at 0.06 mg/kg, ip administered on day 1, 5 and day 9. It is filed as organism-based. The arrangement: dose 0.06 mg/kg, route intraperitoneal. The settings on record: in vivo.
The subject of series [10] is Rift Valley fever virus. Nature of the series: Antiviral activity against Rift Valley fever virus infected in african green monkey Vero cells assessed as plaque reduction at 0.05 ug/mL. The format is functional, organism-based.
Series [11] has as its system Venezuelan equine encephalitis virus. The series is described as follows: Antiviral activity against Venezuelan equine encephalomyelitis virus infected in african green monkey Vero cells assessed as plaque reduction at 0.05 ug/mL. It is filed as functional, organism-based.
Series [12] is filed under the species Mus musculus. Nature of the series: Toxicity in mouse. The format is organism-based. The settings on record: in vivo.
For series [13], the system named is Mus musculus. The series is described as follows: Toxicity in mouse P388 cells xenografted mouse assessed as change in body weight at 1 mg/kg, ip administered on day 1, 5 and day 9. It is filed as organism-based. The arrangement: dose 1 mg/kg, route intraperitoneal. The following applies: in vivo.
In series [14] the test system is Mus musculus. Nature of the series: Toxicity in mouse P388 cells xenografted mouse at 0.5 mg/kg, ip administered on day 1 to day 9. The settings on record: in vivo. The format is organism-based. The arrangement: dose 0.5 mg/kg, route intraperitoneal.
The species named for series [15] is Mus musculus. The series is described as follows: Immunosuppressive activity in spleen cells transformed mouse assessed as inhibition of splenomegaly by graft-versus-host reaction assay. The format is functional, organism-based.
In series [16] the test system is Mus musculus. The series is described as follows: Toxicity in mouse B16 cells xenografted mouse assessed as change in body weight at 0.06 mg/kg, ip administered on day 1 to day 9. It is filed as organism-based. The arrangement: dose 0.06 mg/kg, route intraperitoneal. The settings on record: in vivo.
For series [17], the system named is Mus musculus. Nature of the series: Toxicity in mouse P388 cells xenografted mouse assessed as change in body weight at 0.25 mg/kg, ip administered on day 1 to day 9. The arrangement: dose 0.25 mg/kg, route intraperitoneal. The following applies: in vivo. It is filed as organism-based.
Series [18] deals with Yellow fever virus. The series is described as follows: Antiviral activity against Yellow fever virus infected in rhesus monkey MK2 cells assessed as plaque reduction at 0.05 ug/mL. It is filed as functional, organism-based.
Series [19] concerns Mus musculus. Nature of the series: Toxicity in mouse P388 cells xenografted mouse assessed as change in body weight at 0.06 mg/kg, ip administered on day 1, 5 and day 9. It is filed as organism-based. The arrangement: dose 0.06 mg/kg, route intraperitoneal. The following applies: in vivo.
The test system of series [20] is Mus musculus. The series is described as follows: Toxicity in mouse B16 cells xenografted mouse assessed as change in body weight at 1 mg/kg, ip administered on day 1, 5 and day 9. The format is organism-based. The arrangement: dose 1 mg/kg, route intraperitoneal. The settings on record: in vivo.
For series [21], the system named is Mus musculus. The series is described as follows: Toxicity in mouse B16 cells xenografted mouse assessed as change in body weight at 0.5 mg/kg, ip administered on day 1, 5 and day 9. The format is organism-based. The arrangement: dose 0.5 mg/kg, route intraperitoneal. The settings on record: in vivo.
Series [22] is filed under the species Rattus norvegicus. The series is described as follows: Toxicity in rat. It is filed as organism-based. The following applies: in vivo.
Series [23] concerns Mus musculus. Nature of the series: Toxicity in mouse P388 cells xenografted mouse assessed as change in body weight at 0.03 mg/kg, ip administered on day 1, 5 and day 9. The format is organism-based. The arrangement: dose 0.03 mg/kg, route intraperitoneal.
Series [24] relates to Mus musculus. Nature of the series: Toxicity in mouse B16 cells xenografted mouse assessed as change in body weight at 0.25 mg/kg, ip administered on day 1, 5 and day 9. The format is organism-based. The arrangement: dose 0.25 mg/kg, route intraperitoneal. The settings on record: in vivo.
Series [25] deals with Mus musculus. Nature of the series: Toxicity in mouse B16 cells xenografted mouse at 0.5 mg/kg, ip administered on day 1 to day 9. The arrangement: dose 0.5 mg/kg, route intraperitoneal. It is filed as organism-based. The following applies: in vivo.
In series [26] the test system is Mus musculus. The series is described as follows: Toxicity in mouse P388 cells xenografted mouse assessed as change in body weight at 0.06 mg/kg, ip administered on day 1 to day 9. The arrangement: dose 0.06 mg/kg, route intraperitoneal. It is filed as organism-based. The following applies: in vivo.
In series [27] the test system is Mus musculus. The series is described as follows: Toxicity in mouse P388 cells xenografted mouse at 0.06 mg/kg, ip administered on day 1 to day 9. The settings on record: in vivo. The arrangement: dose 0.06 mg/kg, route intraperitoneal. The format is organism-based.
Series [28] has as its system Mus musculus. Nature of the series: Toxicity in mouse B16 cells xenografted mouse assessed as change in body weight at 0.25 mg/kg, ip administered on day 1 to day 9. The arrangement: dose 0.25 mg/kg, route intraperitoneal. It is filed as organism-based. The settings on record: in vivo.
The test system of series [29] is Sandfly fever Sicilian virus. Nature of the series: Antiviral activity against Sandfly fever virus assessed as plaque reduction at 0.05 ug/mL. The format is functional, organism-based.
Series [30] relates to Mus musculus. The series is described as follows: Toxicity in mouse P388 cells xenografted mouse assessed as change in body weight at 0.5 mg/kg, ip administered on day 1, 5 and day 9. The format is organism-based. The arrangement: dose 0.5 mg/kg, route intraperitoneal. The following applies: in vivo.
Series [31] has as its system Mus musculus. The series is described as follows: Toxicity in mouse B16 cells xenografted mouse assessed as change in body weight at 0.03 mg/kg, ip administered on day 1 to day 9. It is filed as organism-based. The arrangement: dose 0.03 mg/kg, route intraperitoneal. The settings on record: in vivo.
Series [32] has as its system Mus musculus. Nature of the series: Toxicity in mouse P388 cells xenografted mouse assessed as change in body weight at 0.25 mg/kg, ip administered on day 1, 5 and day 9. The format is organism-based. The arrangement: dose 0.25 mg/kg, route intraperitoneal. The following applies: in vivo.
In series [33] the test system is Mus musculus. The series is described as follows: Toxicity in mouse P388 cells xenografted mouse assessed as change in body weight at 1 mg/kg, ip administered on day 1 to day 9. The format is organism-based. The arrangement: dose 1 mg/kg, route intraperitoneal. The settings on record: in vivo.
Series [34] is filed under the species Canis familiaris. Nature of the series: Toxicity in dog. The format is organism-based, Canis lupus familiaris. The settings on record: in vivo.
Series [35] deals with Mus musculus. The series is described as follows: Toxicity in mouse P388 cells xenografted mouse assessed as change in body weight at 0.5 mg/kg, ip administered on day 1 to day 9. The format is organism-based. The arrangement: dose 0.5 mg/kg, route intraperitoneal. The following applies: in vivo.
Series [36] relates to L1210. The series is described as follows: Cytotoxicity against mouse L1210 cells. It is filed as functional. The following applies: read-out: ID50 (the source's name).
Series [37] deals with P388. The series is described as follows: Antitumor activity against mouse P388 cells xenografted mouse assessed as extend the life time at 0.03 to 1 mg/kg, ip. The format is functional. The settings on record: dose mg/kg 0.03-1; route intraperitoneal.
Series [38] concerns Sandfly fever Sicilian virus. Nature of the series: Antiviral activity against Sandfly fever virus assessed as plaque reduction at 250 ug/mL. It is filed as functional, organism-based.
The test system of series [39] is Rift Valley fever virus. The series is described as follows: Antiviral activity against Rift Valley fever virus infected in african green monkey Vero cells assessed as plaque reduction at 250 ug/mL. The format is functional, organism-based.
Series [40] has as its system Venezuelan equine encephalitis virus. The series is described as follows: Antiviral activity against Venezuelan equine encephalomyelitis virus infected in african green monkey Vero cells assessed as plaque reduction at 250 ug/mL. The format is functional, organism-based.
In series [41] the test system is Yellow fever virus. The series is described as follows: Antiviral activity against Yellow fever virus infected in rhesus monkey MK2 cells assessed as plaque reduction at 250 ug/mL. It is filed as functional, organism-based.

In brackets after ≈: the same amount, converted by molar mass. Activity calls are given as the source filed them. No cut-off for these calls is given here. *1 amine or outer side, *2 acyl side, *3 side chain or, on linkers, in order; H or OH if unused. Where a SMILES comes first, the peptide text is derived from it. Bridges are numbered along the chain shown (N, C = ends). [ ]: non-standard residue; d: D form. X1 = CC[C@H](C)[C@@H](N[*:1])[C@@H](O)CC(=O)O[C@H](C(=O)[C@H](C)C(=O)[*:2])C(C)C; NMeY = CN[C@@H](Cc1ccc(O)cc1)C(=O)O; dNMeL = CN[C@H](CC(C)C)C(=O)O; Lac = C[C@H](O)C(=O)O

Consider `Cn1cnc([N+](=O)[O-])c1Sc1ncnc2[nH]cnc12` [AZATHIOPRINE], for which the IC50 came out at 3 µg/mL (≈ 10.8 µM) in [1]; 0.4 µg/mL (≈ 1.44 µM) in series [2]; 1 µg/mL (≈ 3.61 µM) in [3]; 2.9 µg/mL (≈ 10.5 µM) in series [4]; 9 µg/mL (≈ 32.5 µM) in [5]; 85 µg/mL (≈ 307 µM) in series [6]. In series [7], the IC50 is 2 µg/mL (≈ 7.21 µM).

With `CC[C@H](C)[C@H]1NC(=O)[C@@H](NC(=O)[C@@H](CC(C)C)N(C)C(=O)[C@@H]2CCCN2C(=O)C(C)O)[C@@H](C)OC(=O)[C@H](Cc2ccc(OC)cc2)N(C)C(=O)[C@@H]2CCCN2C(=O)[C@H](CC(C)C)NC(=O)[C@@H](C)C(=O)[C@H](C(C)C)OC(=O)C[C@@H]1O` (some centres not stated) [DIDEMNIN B], the Activity in [8] is -4.5 g; in series [9] it was 1.2 g; in series [12] it was “Toxic”; in series [13], -3.8 g; in [14], “Toxic”; in series [16], -0.4 g. Further, the Activity in [17] is recorded as -2.2 g; in series [19], 1.2 g; in series [20], -3.2 g; in [21], -1.3 g; in [22] it was “Toxic”; in [24], 0.3 g. The Activity result in series [25] was “Toxic”; in series [26], 0.1 g; in series [27] it was “Toxic”; in [28], -3.3 g; in [30], -1.7 g; in series [31] it was 0.8 g. Also, the Activity is listed as -0.5 g in series [32], “Toxic” in series [33], “Toxic” in series [34] and -3.4 g in series [35]. Further, the outcome in series [10], in series [11], in series [18] and in [29] was Active. Besides, the inhibition result in series [15] is “Dose-dependent effect”. Also, the body weight change in [23] came to 1600 mg.

On to `CC[C@H](C)[C@H]1NC(=O)[C@@H](NC(=O)[C@@H](CC(C)C)NC)[C@@H](C)OC(=O)[C@H](Cc2ccc(OC)cc2)N(C)C(=O)[C@@H]2CCCN2C(=O)[C@H](CC(C)C)NC(=O)[C@@H](C)C(=O)[C@H](C(C)C)OC(=O)C[C@@H]1O` [DIDEMNIN A] (H-[dNMeL]T[X1]LP[NMeY](Me); ester 2-C), for which the IC50 in series [36] stood at 0.002 µg/mL (≈ 0.00212 µM). The Activity in [37] came out at 100%.

For the molecule `NC(=O)c1ncn([C@@H]2O[C@H](CO)[C@@H](O)[C@H]2O)n1`, the result in [38], in series [39], in series [40] and in series [41] was Active.

`CC[C@H](C)[C@H]1NC(=O)[C@@H](NC(=O)[C@@H](CC(C)C)N(C)C(=O)[C@H](C)O)[C@@H](C)OC(=O)[C@H](Cc2ccc(OC)cc2)N(C)C(=O)[C@@H]2CCCN2C(=O)[C@H](CC(C)C)NC(=O)[C@@H](C)C(=O)[C@H](C(C)C)OC(=O)C[C@@H]1O` [DIDEMNIN C] (H-[Lac][dNMeL]T[X1]LP[NMeY](Me); ester 3-C): in [36], the IC50 was determined as 0.002 µg/mL (≈ 0.00197 µM).
